# Source: paper PMC7999182, “Interaction of Remdesivir with Clinically Relevant Hepatic Drug Uptake Transporters” (Pharmaceutics, 2021)
# What was measured:
# [1] = system: OATP1B1; set-up: method as in earlier work; conditions: prototypic substrate not stated; cited from earlier work
# [2] = molecular target: T1, OATP1B3 (Homo sapiens, UniProt Q9NPD5); assay: Inhibition of OATP1B3-mediated estradiol glucuronide uptake; type: cell-based
# T1 construct: expressed in transfected cells
# T1 sequence (Q9NPD5 1-702): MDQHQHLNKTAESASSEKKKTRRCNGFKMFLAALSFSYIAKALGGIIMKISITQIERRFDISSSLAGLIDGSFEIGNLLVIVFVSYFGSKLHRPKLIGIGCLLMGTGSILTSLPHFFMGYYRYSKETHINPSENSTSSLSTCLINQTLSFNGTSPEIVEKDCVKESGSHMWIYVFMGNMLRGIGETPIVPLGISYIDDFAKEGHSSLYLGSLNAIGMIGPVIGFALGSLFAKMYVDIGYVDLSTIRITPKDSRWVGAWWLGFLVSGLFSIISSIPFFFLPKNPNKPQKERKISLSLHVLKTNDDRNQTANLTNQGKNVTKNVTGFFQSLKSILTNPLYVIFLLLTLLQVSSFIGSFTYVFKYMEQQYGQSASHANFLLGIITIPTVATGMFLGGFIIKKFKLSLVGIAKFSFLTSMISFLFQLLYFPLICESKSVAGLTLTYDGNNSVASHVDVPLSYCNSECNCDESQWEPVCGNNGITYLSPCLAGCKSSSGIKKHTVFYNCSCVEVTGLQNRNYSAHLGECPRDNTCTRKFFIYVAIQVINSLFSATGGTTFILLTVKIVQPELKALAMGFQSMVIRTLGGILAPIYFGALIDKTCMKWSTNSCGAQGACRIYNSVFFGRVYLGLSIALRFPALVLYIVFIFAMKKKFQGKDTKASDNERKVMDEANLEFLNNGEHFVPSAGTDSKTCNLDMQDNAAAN
# From the text: Generation, cultivation and characterization of human embryonic kidney (HEK) cells stably expressing OATP1B1 refseq (=OATP1B1*1a), OATP1B1*1b, OATP1B1*5 and OATP1B1*15 [18], OATP1B3 [19], OATP2B1 [13] and OCT1 [20] have been described previously. OATP1B1 cells were cultivated in minimal essential medium (Life Technologies, Paisley, UK) and OATP1B3, OATP2B1 and OCT1 cells were cultivated in Dulbecco’s modified Eagle medium (Sigma, Darmstadt, Germany). Cultivation media were supplemented with 10% fetal calf serum, 100 U/mL penicillin and 100 µg/mL streptomycin. Cells were grown at 37 °C and 5% CO2. Functionality of the cells was confirmed by measuring uptake of prototypic substrates (see Section 2.3 and supplementary material).
# Prototypic substrate uptake was performed as described previously. For this, uptake solutions contained the respective substrate with tracer amounts of radiolabeled substrate. In case of inhibition studies, uptake solutions additionally contained different concentrations of remdesivir. […] Cells were then lysed with 0.2% sodium dodecyl sulfate and intracellular radioactivity was measured by liquid scintillation counting (Tricarb2800, PerkinElmer Life Sciences GmbH, Rodgau, Germany or Hidex 300SL TDCR liquid scintillation counter, Turku, Finland). […]
smiles,measurement,setting,value
CCC(CC)COC(=O)[C@H](C)N[P@](=O)(OC[C@H]1O[C@@](C#N)(c2ccc3c(N)ncnn23)[C@H](O)[C@@H]1O)Oc1ccccc1 [Remdesivir],IC50,[1],2800 nM
same,Effect on prototypic substrate uptake,"[2]; 5 µM estradiol glucuronide, 5 min uptake, different remdesivir concentrations",significant concentration-dependent inhibitory effect
same,Transporter inhibition at 10 µM,"[2]; 10 µM remdesivir, estradiol glucuronide as substrate",inhibition
